This is an account of results in patent US11014964B2, “Peptide amide compound and preparation method and medical use thereof” (Sichuan Haisco Pharmaceutical Co., Ltd., priority 2017, dated 2021).

pEC50: −log10 of the molar value.

The target of one data set is T1, human κ-opioid receptor (Homo sapiens, UniProt P41145).
T1 construct: host or cells: OPRK1 cells (DiscoveRx)
Put plainly: Agonist activity on human κ-opioid receptors (inhibition of forskolin-stimulated cAMP release, TR-FRET). Conditions: OPRK1 cells (DiscoveRx). The class given is cell-based. From the text: Test 1: Agonist Activity on Human κ-Opioid Receptors
Forskolin can stimulate the release of cAMP from a human κ-opioid receptor-overexpressing cell line, OPRK1 cells (DiscoveRx), and κ-opioid receptor agonists can inhibit the cAMP release stimulated by forskolin. By detecting the inhibitory effect of the test compound on the cAMP release stimulated by forskolin, the agonistic activity of the compound on the human κ-opioid receptor can be determined. First, a certain concentration of forskolin and different concentrations of the test compound were incubated with human κ-opioid receptor overexpressing cell lines. A cAMP immunoassay (LANCE®, PerkinElmer) based on time-resolved fluorescence resonance energy transfer (TR-FRET) was used to determine cAMP levels in the stimulated OPRK1 cells. The specific method is as follows:
OPRK1 cells (DiscoveRx) that highly express human κ-opioid receptors were cultured in McCoy's 5A (Gibco 16600-082) medium containing 10% FBS (Gibco 10099-141). On the day of the experiment, the cells in the exponential growth phase were washed and separated with PBS/5 mM EDTA, collected by centrifugation, resuspended with Stimulation Buffer and counted. The concentration of cells was adjusted to 3*10^5 cells/ml. DMSO was used to dissolve Forskolin and the test compound respectively, so that the mother liquor concentration each was 10 mM, and then diluted Forskolin to […] with Stimulation Buffer, and different concentrations of the test compound (the concentrations were 80, 16, 3.2, 0.64, 0.128, 0.0256, 0.00512, 0.001024, 0 μM) was added, 5 μl per well was added to a 384-well plate. 5 μl of cell suspension was added to each well and incubated at room temperature for 30 min. Subsequently, 5 μl of 4×Eu-cAMP tracer working solution (50-fold dilution of Eu-cAMP stock solution with cAMP Detection Buffer) and 5 μl of 4×Ulight-anti-cAMP working solution (150-fold dilution of ULight-anti-cAMP stock solution with cAMP Detection Buffer) were added to each well, and incubated at room temperature for 1 hour. 384-well plates were assayed for cAMP levels using a microplate reader (Perkin Elmer, Envision) TR-FRET method. The obtained data were processed and fitted to EC50 using the origin 7.5 software. The human κ-opioid receptor agonistic activity of the compound of the present invention was measured through the above experiments, and the measured EC50 values are shown in Table 1.
Stimulation Buffer preparation method: 14 mL 1*HBSS (invitrogen, cat. #14025-092), 75 μL 1 M HEPES (Invitrogen, cat. #15630-080), 30 μL 250 mM IBMX was dissolved in DMSO (Sigma, cat. #17018) and mixed with 200 μL 7.5% BSA Stabilizer. pH of the solution was adjusted to 7.4 with 0.1 N NaOH and make up to 15 mL with 1*HBSS.

The subject of a further data set is C57 mice. In words: Mouse hot plate experiment. The class given is in vivo. Conditions: female C57 mice, subcutaneous, detection 15 minutes after administration, hot plate 56° C., cut-off 30 seconds. The procedure:
Test 2: Mouse Hot Plate Experiment
18-22 g of female C57 mice were purchased from Chengdu Dashuo Experimental Animal Co., Ltd. The temperature of the hot plate instrument was set to 56° C., and after reaching 56° C., the temperature was stabilized for 30 minutes before experiment. The animals were placed in a hot plate test in order to observe the reaction of licking the hind feet, which was used as an indicator of pain response. The time from the entry of the animal to the hot plate to the heat-induced licking of the hind feet was recorded. Animals that meet the inclusion criteria (response time to lick the hind foot is less than 25s) are included in the group number. The animals were grouped by baseline threshold, with 10 in each group. Compounds of different concentrations were administered subcutaneously at 10 ml/kg, and a detection was carried out after 15 minutes of administration, with 30 seconds as the cut-off time, and the reaction time was recorded. The results were analyzed statistically, and the % MPE value was calculated according to the formula: % MPE=(Tn−T0)/(30−T0), (Tn is the time for the animal to lick the hind foot after administration, T0 is the time for the animal to lick the foot before administration) The experimental results are shown in Table 2.

The nature of a further data set: Rat PK test. Conditions: male SD rats, iv, 1 mg/kg (calculated in free form). It counts as in vivo.
The nature of another data set: Mouse PK test. The settings on record: plasma, male ICR mice, iv, 1 mg/kg (calculated in free form). The class given is in vivo.

T1 sequence (P41145 whole entry): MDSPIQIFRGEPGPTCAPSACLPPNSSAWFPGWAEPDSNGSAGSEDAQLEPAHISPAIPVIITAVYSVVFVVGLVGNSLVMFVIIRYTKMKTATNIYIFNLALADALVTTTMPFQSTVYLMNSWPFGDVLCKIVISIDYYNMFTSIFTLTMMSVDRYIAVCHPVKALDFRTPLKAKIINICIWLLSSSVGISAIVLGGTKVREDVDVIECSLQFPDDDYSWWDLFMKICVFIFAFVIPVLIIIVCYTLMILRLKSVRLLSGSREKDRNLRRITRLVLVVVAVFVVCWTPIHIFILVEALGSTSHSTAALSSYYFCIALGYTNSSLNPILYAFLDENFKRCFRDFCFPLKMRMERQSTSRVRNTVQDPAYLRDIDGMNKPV

`CC(C)C[C@@H](NC(=O)[C@@H](Cc1ccccc1)NC(=O)[C@H](N)Cc1ccccc1)C(=O)N[C@H](CCCCN)C(=O)N1CC2(C1)CC1(CNC(=O)C1)C2` [Compound 4, (2R)—N-[(1R)-5-amino-1-(9-oxo-2,8-diazadispiro[3.1.4^6.1^4]undecane-2-carbonyl)pentyl]-2-[[(2R)-2-[[(2R)-2-amino-3-phenyl-propanoyl]amino]-3-phenyl-propanoyl]amino]-4-methyl-pentanamide; di-trifluoroacetic acid] gave a pEC50 at human κ-opioid receptor of 10.80. Further, the “MPE(%)” value in the data set on C57 mice was −19.62%.
On human κ-opioid receptor, `CC(C)C[C@@H](NC(=O)[C@@H](Cc1ccccc1)NC(=O)[C@H](N)Cc1ccccc1)C(=O)N[C@H](CCCCN)C(=O)N1CCC2(CC1)CC(N)(C(=O)O)C2` [Compound 2, 2-amino-7-[(2R)-6-amino-2-[[(2R)-2-[[(2R)-2-[[(2R)-2-amino-3-phenyl-propanoyl]amino]-3-phenyl-propanoyl]amino]-4-methyl-pentanoyl]amino]hexanoyl]-7-azaspiro[3.5]nonane-2-carboxylic acid; tri-trifluoroacetic acid] had a pEC50 of 9.39. Also, the “MPE(%)” value in the data set with C57 mice is −17.20%. For the same molecule, the Cl in “Rat PK test” is listed as 5.97 ml/kgmin. Also, in the data set “Rat PK test” (rat, plasma), the AUC(0-t) is 2660 ng·h/mL and the half-life was 253 min. Besides, the Vd in “Rat PK test” (rat, plasma, read-out: Vdss) is 1.47 L/kg.
Regarding `CNC(=O)N1CC2(CCN(C(=O)[C@@H](CCCCN)NC(=O)[C@@H](CC(C)C)NC(=O)[C@@H](Cc3ccccc3)NC(=O)[C@H](N)Cc3ccccc3)CC2)C1` [Compound 15, 7-[(2R)-6-amino-2-[[(2R)-2-[[(2R)-2-[[(2R)-2-amino-3-phenyl-propanoyl]amino]-3-phenyl-propanoyl]amino]-4-methyl-pentanoyl]amino]hexanoyl]-N-methyl-2,7-diazaspiro[3.5]nonane-2-carboxamide; di-trifluoroacetic acid], the pEC50 on human κ-opioid receptor was 10.93. In addition, in the data set on C57 mice, the “MPE(%)” value is reported as −13.29%.
As for `CC(=O)N1CC2(CCN(C(=O)[C@@H](CCCCN)NC(=O)[C@@H](CC(C)C)NC(=O)[C@@H](Cc3ccccc3)NC(=O)[C@H](N)Cc3ccccc3)CC2)C1` [Compound 8, (2R)—N-[(1R)-1-(2-acetyl-2,7-diazaspiro[3.5]nonane-7-carbonyl)-5-amino-pentyl]-2-[[(2R)-2-[[(2R)-2-amino-3-phenyl-propanoyl]amino]-3-phenyl-propanoyl]amino]-4-methyl-pentanamide; di-trifluoroacetic acid], in “Mouse PK test”, the AUC(0-t) is 1220 ng·h/mL and the half-life is 346 min. In addition, the pEC50 on human κ-opioid receptor is 10.95. In the data set with C57 mice, the “MPE(%)” value is −18.61%.
